Data as given in patent US12662473B2, “Inhibitors for programmed cell necrosis and preparation method therefor and use thereof” (SHANGHAI INSTITUTE OF ORGANIC CHEMISTRY, CHINESE ACADEMY OF …, priority 2019, dated 2026).

Tests used:
[1] = system: RIPK1 phosphorylation and MLKL oligomerization in FADD deficient Jurkat cells; test: Western blot of key proteins in TNFα-induced FADD deficient Jurkat cell programmed necrosis pathway; format: cell-based, human; conditions: TNFα-stimulated FADD deficient Jurkat cells, FIG. 2
Excerpt: In order to verify whether the compounds of the present invention can inhibit programmed cell death by inhibiting the activity of RIPK1, and to detect the activation of downstream proteins of programmed necrosis pathway, TNFα was used to stimulate FADD deficient Jurkat to produce programmed necrosis, and the compounds of the present invention were used to treat the cells at the same time. Cells were harvested after a period of time to detect phosphorylation of RIPK1 and oligomerization of MLKL using western blot.
FADD deficient Jurkat cells (human peripheral blood leukemia T cell line) were cultured in vitro. […] The BCA protein quantification kit was used to detect the protein content of each group, and PIPA lysis buffer was used to adjust the protein amount to make the final volume of 100 μL. […]
25 μL of 5* protein loading buffer was added to 100 μL of cell lysate, and the mixture was heated at 95° C. for 10 min After the samples were cooled, electrophoresis was carried out using SDS-PAGE (9%) gel at 60V, and then switched to 120V after 30 min until the leading band was electrophoresed to the bottom of the gel. […] The resulting sample was incubated with ECL luminescent solution and detected the luminescent signal.

RIPK1(1-330) protein = biological target: T1, RIPK1(1-330) protein (Homo sapiens, UniProt Q13546); test: Protein thermal shift assay; format: binding; design: RIPK1(1-330) protein (final concentration 2 μM) was expressed and purified in insect cells; made in house; host or cells: insect cells; conditions: FIG. 3
T1 sequence (Q13546 1-330): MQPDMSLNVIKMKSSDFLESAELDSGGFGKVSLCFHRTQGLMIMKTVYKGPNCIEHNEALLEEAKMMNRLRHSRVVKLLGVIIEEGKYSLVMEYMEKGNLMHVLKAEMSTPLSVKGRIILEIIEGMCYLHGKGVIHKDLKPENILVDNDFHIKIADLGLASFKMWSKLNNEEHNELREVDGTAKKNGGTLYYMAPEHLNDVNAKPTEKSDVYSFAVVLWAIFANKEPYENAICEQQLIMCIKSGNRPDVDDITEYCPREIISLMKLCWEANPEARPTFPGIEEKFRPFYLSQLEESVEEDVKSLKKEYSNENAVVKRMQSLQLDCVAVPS
Experimental: The interaction between RIPK1 protein and compound was analyzed by studying the thermal stability of the protein. Small molecule ligands can stabilize proteins by binding to proteins, increasing the Tm value of proteins. The interaction between the compound and the protein can be indirectly judged by testing the effect of the compound on the thermal stability of the protein. RIPK1 protein contains kinase domain (1-312), intermediate domain (312-582) and death domain (582-669), and RIPK1 (1-330) protein purified in vitro contains all kinase domains.
The adopted biological test protocol was to test the effect of compound QY-1-98 on the thermal stability of RIPK1 (1-330) protein using protein thermal shift assay, using the known RIPK1 inhibitor Nec-1s as a control.
RIPK1(1-330) protein (final concentration 2 μM) was expressed and purified in insect cells, mixed with the corresponding concentration of compound and SYRO Orange Protein gel stain dye (final concentration 5×). 10 μL of final volume was added to 384-well plate, and at least 3 duplicate wells were set in each group. After the samples were placed for 2 hours at room temperature, the 7500 Fast Real-Time PCR System was applied to test the thermal stability of the protein by […]. The temperature was set at 25° C.-95° C., 0.015° C./s. The datas were analyzed using protein thermal shift software.

Cc1noc([C@@H]2CCCN2C(=O)C(C)(C)Oc2ccc(Cl)cc2)n1 [QY-1-98]
oligomerization of MLKL [1]: can inhibit
phosphorylation of RIPK1 [1]: can inhibit the phosphorylation of RIPK1
thermal stability of RIPK1 (1-330) protein (RIPK1(1-330) protein): can significantly improve the thermal stability
